The record followed here is article PMC7157554, “Anti-Trypanosomal Proteasome Inhibitors Cure Hemolymphatic and Meningoencephalic Murine Infection Models of African Trypanosomiasis” (Tropical Medicine and Infectious Disease, 2020).

As usually defined, the EC50 is the concentration giving half of the maximal effect.

Where two headings read alike, the source gives them in different places.

Data set [1] deals with T. b. brucei strain Lister 427 (bloodstream form). Description: T. b. brucei growth inhibition assay (CellTiter-Glo, 48 h). The data set is classed as cell-based, Trypanosoma brucei brucei. On the procedure:
The T. b. brucei strain Lister 427 (bloodstream form) parasites were continuously grown in complete HMI-9 medium supplemented with 10% Serum Plus and 10% heat-inactivated fetal bovine serum (FBS). All other parasite strains were cultured as described elsewhere.
For determination of 50% growth inhibition, all compounds were dissolved in DMSO, and 200 nL of threefold serially diluted compounds were added into solid-bottom 384-well white plates (Greiner Bio-One, Kremsmunster, Austria) by an Echo 555 acoustic liquid-handling system. Forty microliters of 10^4 cells/mL of T. b. brucei parasites was added into each well, and the plates were incubated in a 5% CO2 incubator at 37 °C for 48 h. Viability of parasites were determined by measuring intracellular ATP levels, using CellTiter-Glo (CTG) luminescent cell viability reagent (Promega, Madison, Wisconsin WI, USA). The EC50 values were determined by using GraphPad Prism software. Growth inhibition assays for all clinical isolates were carried out as described earlier. All experiments had two technical replicates and three biological replicates. Appropriate statistical tests were used for evaluating significance, and mean ± SEM is represented in the tables.
On the technique in general: In ATP-based viability assays light output follows the ATP content of the culture.

The test system of data set [2] is HepG2 (human hepatocellular carcinoma) cells. Description: HepG2 cytotoxicity assay (CCK-8, 96 h). The note with it: mean ± SEM. It is filed as cell-based. How it is done: The HepG2 (human hepatocellular carcinoma) cells were obtained from ATCC (American Type Culture Collection) and grown in RPMI media. Cytotoxicity assay was performed in 384-well format, and 25 µL, approximately 1.6 × 10^4 cells/mL, suspension was added to clear-bottom 384-well Griener plates and incubated in 5% CO2 incubator, at 37 °C for 24 h. Once the cells adhered, 125 nL of threefold serially diluted compounds in DMSO was added. Plates were incubated for 96 h, at 37 °C, in a 5% CO2 incubator. Plates were read for viability by adding 10 µL of CCK-8 reagent (APExBIO) into each well, followed by 3 h incubation and absorbance reading at […], using an Envision plate reader. […] Puromycin was used as a positive control. All experiments had two technical replicates and three biological replicates. Appropriate statistical tests were used for evaluating significance, and mean ± SEM is represented in the tables.

On to `Cc1nc(C)c(C(=O)Nc2ccc(F)c(-c3nc4ncc(-c5ccccn5)cn4n3)c2)o1` [GNF6702], for which the EC50 is 70 ± 3 nM in data set [1] (Lister 427 bloodstream form, mean ± SEM, read-out: T. b. brucei EC50) and below 70 nM in data set [1] (Trypanosoma brucei, read-out: T. b. brucei EC50, Lister 427 bloodstream form, 48 h, mean ± SEM).

Take `Cc1nc(C)c(C(=O)Nc2ccc(F)c(-c3nc4ncc(-c5ccccc5)cn4n3)c2)o1` [GNF3849]: the “HepG2 CC50” value in data set [2] is recorded as “cytotoxic”.
